# Laboratory results reported in ChEMBL document CHEMBL4177630, “Discovery and evaluation of Cav3.2-selective T-type calcium channel blockers” (Bioorg Med Chem Lett, 2017).
# What was measured:
# [1] = Aqueous solubility of the compound at pH 7; format: physicochemical
# [2] = Intrinsic clearance in rat liver microsomes; format: ADME, microsome; settings: read-out: CLH
# [3] = Drug level in Wistar rat brain at 100 mg/kg, po measured after 1 hr; format: ADME, organism-based; settings: read-out: Drug uptake
# [4] = Fraction unbound in Wistar rat plasma at 100 mg/kg, po measured after 1 hr; format: ADME, organism-based; settings: in vivo
# [5] = Plasma concentration in Wistar rat at 100 mg/kg, po measured after 1 hr; format: ADME, organism-based
# [6] = Drug level in Wistar rat CSF at 100 mg/kg, po measured after 1 hr; format: ADME, organism-based, Cerebrospinal fluid; settings: read-out: Drug uptake
# [7] = Fraction unbound in Wistar rat plasma at 10 mg/kg, po measured after 1 hr; format: ADME, organism-based; settings: in vivo
# [8] = Drug level in Wistar rat brain at 10 mg/kg, po measured after 1 hr; format: ADME, organism-based; settings: read-out: Drug uptake
# [9] = Drug level in Wistar rat CSF at 10 mg/kg, po measured after 1 hr; format: ADME, organism-based, Cerebrospinal fluid; settings: read-out: Drug uptake
# [10] = Plasma concentration in Wistar rat at 10 mg/kg, po measured after 1 hr; format: ADME, organism-based
solubility [1] [µg/mL],microsomal CLint [2] [µL/min/mg],concentration at 1 h [3] [nM],Cp(f) [4] [nM],concentration at 1 h [5] [nM],concentration at 1 h [6] [nM],Cp(f) [7] [nM],concentration at 1 h [8] [nM],concentration at 1 h [9] [nM],concentration at 1 h [10] [nM],SMILES
< 1,> 1250,436,< 0.4,397,< 0.7,–,–,–,–,CC(C)OCc1ccccc1CNC(=O)c1c2c(c(Cl)n1C)CC(C)(C)CC2
1,645,12100,5.2,5210,23,–,–,–,–,Cn1c(Cl)c2c(c1C(=O)NCc1ccncc1OCC(F)(F)F)CCC(C)(C)C2
< 1,–,–,–,–,–,–,–,–,–,Cn1c(Cl)c2c(c1C(=O)NCc1ncccc1N1CC[C@H](F)C1)CCC(C)(C)C2
< 1,420,–,–,–,–,< 0.35,4720,6,353,Cn1c(Cl)c2c(c1C(=O)NCc1cccnc1OCC(F)(F)F)CCC(C)(C)C2
7,> 1250,1020,1.6,530,17,–,–,–,–,Cc1onc(CNC(=O)c2c3c(c(Cl)n2C)CC(C)(C)CC3)c1Cn1cccn1
